Literature values, collected in paper PMC12120261, “Responsiveness of different MET tumour alterations to type I and type II MET inhibitors” (Clinical and Translational Medicine, 2025).

Tested on: MET G1163R
Design: method as in PMID 31279006

Question: With `CNC(=O)c1ccc(-c2cnc3ncc(Cc4ccc5ncccc5c4)n3n2)cc1F` [capmatinib] as the compound, how does the “sensitivity of the solvent front G1163R mutation” value (“sensitivity” below) read?
Answer: remains sensitive

Question: Which “sensitivity” value does the source give for `C[C@@H](Oc1cc(-c2cnn(C3CCNCC3)c2)cnc1N)c1c(Cl)ccc(F)c1Cl` [crizotinib, Crizotinib] here?
Answer: conferring resistance

Question: For `C[C@@H](c1ccc2nccn2c1)n1nnc2ncc(-c3cnn(C)c3)nc21` [savolitinib], which “sensitivity” value is on record?
Answer: remains sensitive
